System: HOP-62 complex spheroids with HUVEC/MSC, viability
Assay: Anticancer human tumor HOP-62 cell line growth inhibition [RAS];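 further: spheroids exposed to agents for seven days before readout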;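 on viability, T/C: 100% = DMSO vehicle control viability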
Conditions: for viability, T/C: stronger effect = lower value
Outline: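 Tumour cells grown as complex spheroids with HUVEC endothelial cells and mesenchymal stem cells, treated with RAS pathway inhibitor combinations. Each agent spans half-log steps from near clinical Cmax, or 10 microM where Cmax is unknown.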

[1] = curve of first compound, second compound 0.00316 µM
[2] = curve of first compound, second compound 0.01 µM
[3] = curve of first compound, second compound 0.0316 µM
[4] = curve of first compound, second compound 0.1 µM
[5] = curve of first compound, second compound 0.316 µM
[6] = curve of first compound, second compound 1 µM
[7] = second compound 0.00316 µM, first compound 0.0316 µM
[8] = second compound 0.00316 µM, first compound 0.1 µM
[9] = second compound 0.00316 µM, first compound 0.316 µM
[10] = second compound 0.00316 µM, first compound 1 µM
[11] = second compound 0.01 µM, first compound 0.0316 µM
[12] = second compound 0.01 µM, first compound 0.1 µM
[13] = second compound 0.01 µM, first compound 0.316 µM
[14] = second compound 0.01 µM, first compound 1 µM
[15] = second compound 0.0316 µM, first compound 0.0316 µM
[16] = second compound 0.0316 µM, first compound 0.1 µM
[17] = second compound 0.0316 µM, first compound 0.316 µM
[18] = second compound 0.0316 µM, first compound 1 µM
[19] = second compound 0.1 µM, first compound 0.0316 µM
[20] = second compound 0.1 µM, first compound 0.1 µM
[21] = second compound 0.1 µM, first compound 0.316 µM
[22] = second compound 0.1 µM, first compound 1 µM
[23] = second compound 0.316 µM, first compound 0.0316 µM
[24] = second compound 0.316 µM, first compound 0.1 µM
[25] = second compound 0.316 µM, first compound 0.316 µM
[26] = second compound 0.316 µM, first compound 1 µM
[27] = second compound 1 µM, first compound 0.0316 µM
[28] = second compound 1 µM, first compound 0.1 µM
[29] = second compound 1 µM, first compound 0.316 µM
[30] = second compound 1 µM, first compound 1 µM

CCN1CCN(Cc2ccc(Nc3ncc(F)c(-c4cc(F)c5nc(C)n(C(C)C)c5c4)n3)nc2)CC1 + C=CC(=O)N1CCN(c2nc(OCC3CCCN3C)nc3c(F)c(-c4nc(N)cc(C)c4C(F)(F)F)c(Cl)cc23)C(C)C1
IC50 [1]: > 1000 nM
IC50 [2]: > 1000 nM
IC50 [3]: 110 nM
IC50 [4]: > 1000 nM
IC50 [5]: 613 nM
IC50 [6]: > 1000 nM
viability, T/C (second compound 0.00316 µM, first compound 0.00316 µM): 87.7%
viability, T/C (second compound 0.00316 µM, first compound 0.01 µM): 84.1%
viability, T/C [7]: 69.2%
viability, T/C [8]: 73%
viability, T/C [9]: 64.8%
viability, T/C [10]: 55.5%
viability, T/C (second compound 0.01 µM, first compound 0.00316 µM): 71.5%
viability, T/C (second compound 0.01 µM, first compound 0.01 µM): 64.3%
viability, T/C [11]: 62.5%
viability, T/C [12]: 55.9%
viability, T/C [13]: 57.3%
viability, T/C [14]: 48.8%
viability, T/C (second compound 0.0316 µM, first compound 0.00316 µM): 72.2%
viability, T/C (second compound 0.0316 µM, first compound 0.01 µM): 74.3%
viability, T/C [15]: 59%
viability, T/C [16]: 52.8%
viability, T/C [17]: 47.6%
viability, T/C [18]: 46.9%
viability, T/C (second compound 0.1 µM, first compound 0.00316 µM): 69.7%
viability, T/C (second compound 0.1 µM, first compound 0.01 µM): 57.6%
viability, T/C [19]: 59.9%
viability, T/C [20]: 51.3%
viability, T/C [21]: 68.2%
viability, T/C [22]: 45.2%
viability, T/C (second compound 0.316 µM, first compound 0.00316 µM): 69%
viability, T/C (second compound 0.316 µM, first compound 0.01 µM): 70.6%
viability, T/C [23]: 68.8%
viability, T/C [24]: 50.2%
viability, T/C [25]: 58%
viability, T/C [26]: 46.8%
viability, T/C (second compound 1 µM, first compound 0.00316 µM): 66.7%
viability, T/C (second compound 1 µM, first compound 0.01 µM): 58.6%
viability, T/C [27]: 50.6%
viability, T/C [28]: 59.9%
viability, T/C [29]: 54.7%
viability, T/C [30]: 47.1%

CCc1c2c(nc3ccc(O)cc13)-c1cc3c(c(=O)n1C2)COC(=O)[C@]3(O)CC
viability, T/C (compound 0.003 µM): 22.4% [middle of 4 runs]
viability, T/C (compound 0.00949 µM): 10.6% [middle of 4 runs]
viability, T/C (compound 0.03 µM): 7.82% [middle of 4 runs]
viability, T/C (compound 0.0949 µM): 5.87% [middle of 4 runs]
viability, T/C (compound 0.3 µM): 3.8% [middle of 4 runs]
IC50 (curve of compound): 1.34 nM [middle of 4 runs]

CCC(CC)c1cc(NC2CCC(N)C2)n2nccc2n1 (stereo not given) + C=CC(=O)N1CCN(c2nc(OCC3CCCN3C)nc3c(F)c(-c4nc(N)cc(C)c4C(F)(F)F)c(Cl)cc23)C(C)C1
IC50 [1]: 1430 nM
IC50 [2]: 1320 nM
IC50 [3]: 1450 nM
IC50 [4]: 1430 nM
IC50 [5]: 1360 nM
IC50 [6]: 1380 nM
viability, T/C [7]: 82.5%
viability, T/C [8]: 79.4%
viability, T/C [9]: 88.6%
viability, T/C [10]: 71.8%
viability, T/C (second compound 0.00316 µM, first compound 3.16 µM): 2.08%
viability, T/C (second compound 0.00316 µM, first compound 10 µM): 1.07%
viability, T/C [11]: 77.7%
viability, T/C [12]: 69.6%
viability, T/C [13]: 70.3%
viability, T/C [14]: 65.5%
viability, T/C (second compound 0.01 µM, first compound 3.16 µM): 1.41%
viability, T/C (second compound 0.01 µM, first compound 10 µM): 0.46%
viability, T/C [15]: 75.2%
viability, T/C [16]: 68.4%
viability, T/C [17]: 76.5%
viability, T/C [18]: 73.2%
viability, T/C (second compound 0.0316 µM, first compound 3.16 µM): 0.98%
viability, T/C (second compound 0.0316 µM, first compound 10 µM): 0.34%
viability, T/C [19]: 66.2%
viability, T/C [20]: 70.5%
viability, T/C [21]: 74.6%
viability, T/C [22]: 73.5%
viability, T/C (second compound 0.1 µM, first compound 3.16 µM): 2.62%
viability, T/C (second compound 0.1 µM, first compound 10 µM): 0.16%
viability, T/C [23]: 70.7%
viability, T/C [24]: 68.9%
viability, T/C [25]: 71.4%
viability, T/C [26]: 68.2%
viability, T/C (second compound 0.316 µM, first compound 3.16 µM): 0.89%
viability, T/C (second compound 0.316 µM, first compound 10 µM): 0.5%
viability, T/C [27]: 62.5%
viability, T/C [28]: 69.9%
viability, T/C [29]: 70.9%
viability, T/C [30]: 73.4%
viability, T/C (second compound 1 µM, first compound 3.16 µM): 1.28%
viability, T/C (second compound 1 µM, first compound 10 µM): 0.62%
